Assay results as given in patent US5013544A, “Contraceptive methods and compositions” (The Victoria University of Manchester, priority 1988, dated 1991).

What was measured:
human semen (sperm) = assay: Inhibition of motility of human sperm, ~1 min, in Tyrodes T6 medium (Example 1); assay type: cell-based; settings: about 1 minute, 25 degrees C., Tyrodes T6 + human albumin
Experimental: (§1) Chlorhexidine, as the diacetate salt, and/or nonoxynol-9 (50 μl. of an appropriate aqueous dilution) was dissolved in Tyrodes T6 balanced salt solution supplemented with 4 mg./ml. of human albumin. The solution was prepared and used immediately, by being mixed with 50 μl. of fresh human semen with a sperm concentration of at least 50 million per ml, and a motility of at least 80%, and incubated at 25 degrees C. for about 1 minute.
(§2) The motility of the sperm so treated was measured by one of two methods:
(§3) (1) If the concentration of chlorhexidine caused protein precipitation, motility was estimated by phase contrast microscopy at 200× magnification in a 10 μm deep counting chamber.
(§4) (2) If the solution remained optically clear, motility was measured by laser Doppler spectroscopy. This technique involves the analysis by auto-correlation of the fraction of the scattered laser light which contains the Doppler-shifted frequencies generated by interaction between the incident laser and the sperm head.

sperm (semen) = assay: Spermicidal action in isotonic aqueous sucrose: % of sperm motile 1 minute after contact (Example 2); assay type: cell-based, human
Experimental: as §1, §2, §3, §4
The procedure of Example 1 was repeated, using solutions of the specified compounds (nonoxenol-9 and chlorhexidine diacetate) in an isotonic aqueous solution of sucrose, the spermicidal action of nonoxenol-9 and chlorhexidine diacetate, derived from five examinations, each being measured in duplicate. The concentrations are the final values in semen.
The values expressed are the percentages, expressed as a mean, of the sperm which are motile 1 minute after contact with the spermicide.

[1] = Stability of spermicidal activity of chlorhexidine / composition in solution; assay type: physicochemical
sperm = assay: Site of spermicidal action (vagina, cervical mucus); settings: vagina and cervical mucus; no test described

| Compound | % Inhibition of motility (human semen (sperm); 0.5 mg./ml.) | inhibition at 2000 µg/mL (human semen (sperm); Sperm, 1 min, 2 mg./ml.) [%] | percentage of the sperm which are motile 1 minute after contact (mean) (sperm (semen); Chlorhexidine 0.5 mg/ml, nonoxynol-9 0, untreated 50.37) [%] | percentage of the sperm which are motile 1 minute after contact (mean) (sperm (semen); Chlorhexidine 1.0 mg/ml, nonoxynol-9 0, untreated 50.37) [%] | percentage of the sperm which are motile 1 minute after contact (mean) (sperm (semen); Chlorhexidine 2.0 mg/ml, nonoxynol-9 0, untreated 50.37) [%] | percentage of the sperm which are motile 1 minute after contact (mean) (sperm (semen); Chlorhexidine 5.0 mg/ml, nonoxynol-9 0, untreated 50.37) [%] | loss of spermicidal activity ([1]; chloride ion at physiological concentrations) | tendency to lose spermicidal activity ([1]; in some circumstances and formulations, associated with certain anions) | stability of aqueous solution ([1]; isotonic aqueous sucrose solution) | site of spermicidal action (sperm) | % Inhibition of motility (human semen (sperm); 2 mg./ml.) [%] | percentage of the sperm which are motile 1 minute after contact (mean) (sperm (semen); Nonoxynol-9 0.2 mg/ml, chlorhexidine 0, untreated 50.37) [%] | percentage of the sperm which are motile 1 minute after contact (mean) (sperm (semen); Nonoxynol-9 0.4 mg/ml, chlorhexidine 0, untreated 50.37) [%] | percentage of the sperm which are motile 1 minute after contact (mean) (sperm (semen); Nonoxynol-9 0.6 mg/ml, chlorhexidine 0, untreated 50.37) [%] |
| --- | --- | --- | --- | --- | --- | --- | --- | --- | --- | --- | --- | --- | --- | --- |
| [H]/N=C(\N/C(=N/[H])NCCCCCCNC(=N)NC(=N)Nc1ccc(Cl)cc1)Nc1ccc(Cl)cc1 [Chlorhexidine, 1:6-di-(N-p-chlorophenyl-diguanido)-hexane] | ZERO | 5 | 39.32 | 16.14 | 10.02 | 0 | lose its spermicidal activity in less than two hours | marked tendency to lose its spermicidal activity | remained stable for greater than three days | acts as a spermicide both in the vagina and in the cervical mucus |  |  |  |  |
| Nonoxynol-9 | ZERO |  |  |  |  |  |  |  |  | only spermicidal in the vagina and does not enter the cervical mucus | 100 | 31.09 | 0 | 0 |
